In brackets after ≈: the same amount, converted by molar mass. Several values for one entry are separate records, joined by “and”; a condition that tells them apart may be missing. Equal entries are not always repeated. Where two headings read alike, the source gives them in different places.
How the values were obtained:
S. aureus ATCC29213 = test system: S. aureus ATCC29213; parameters: method as in earlier work; details: library for the QSAR model, ref [1]; cited from earlier work
S.aureus ATCC12598-MSSA = assay: MIC and MBC microtiter plate assay, also with different inocula; format: cell-based, Staphylococcus aureus
[1] = test system: E. faecalis ATCC51299-VRE; assay: as above; format: cell-based
A. baumannii ATCC17978 = assay: as above; format: cell-based, Acinetobacter baumannii; details: A. baumannii ATCC17978
S.aureus ATCC29213-MSSA = assay: MIC and MBC microtiter plate assay; format: cell-based, Staphylococcus aureus
P. aeruginosa ATCC27853 = assay: MIC microtiter plate assay; format: cell-based, Pseudomonas aeruginosa
[2] = test system: Gram-positive control strains; assay: MIC and MBC, summary over Gram-positive control strains; format: cell-based, S. aureus and Enterococcus spp.; details: Gram-positive control strains
S.aureus Mu50-VISA = assay: MIC and MBC microtiter plate assay; format: cell-based, Staphylococcus aureus
CaCo-2 cells = assay: MTT cytotoxicity assay; format: cell-based, human; details: 24 h of incubation relative to untreated controls
Description: To evaluate the biological activity of the PBn series, compounds were screened for toxicity against the colon-rectal cancer cell line CaCo-2 (ATCC HTB-37). These human cancer cells were treated with solutions of the compounds at decreasing concentrations, starting from 100 μM up to 0.01 μM. The reference compound used for these assays was 5-Fluorouracil (5-Fu), a pyrimidine analogue belonging to the family of antimetabolite. […] Briefly, human colorectal adenocarcinoma cells (CaCo-2 HTB-37^TM Colorectal Adenocarcinoma Human, American Type Culture Collection, Manassas, VA, USA) were grown in Dulbecco’s MEM (DMEM) with 10% heat-inactivated fetal bovine serum, 2 mM L-Alanyl-L-Glutamine, penicillin-streptomycin (50 units-50 μg for mL) and incubated at 37 °C in a humidified atmosphere of 5% CO2, 95% air. CaCo-2 cells were plated in 96 well pates and incubated at 37 °C. The PBn series compounds and 5-FU were prepared as a 1 mM solution in 10 mL with 0.01% DMSO. Then, 24 h after plating, cells were treated with 20 μL of each solution. Untreated cells were used as controls. […] The results were read on a multiwell scanning spectrophotometer (AF2200 plate reader, Eppendorf, Milan, Italy), using a wavelength of 569 nm.

E. coli ATCC25922 = assay: MIC and MBC microtiter plate assay, also with different inocula; format: cell-based, Escherichia coli
S.aureus USA300-CAMRSA = assay: MIC and MBC microtiter plate assay; format: cell-based, Staphylococcus aureus
[3] = test system: Gram-positive and Gram-negative ATCC strains; assay: MIC and MBC, summary over Gram-positive and Gram-negative strains; format: cell-based; details: bactericidal effect defined as MBC/MIC ≤ 4
[4] = test system: K. pneumoniae ATCC BAA-2814; assay: MIC microtiter plate assay; format: cell-based, Klebsiella pneumoniae; details: K. pneumoniae ATCC BAA-2814 (MDR strain)
[5] = test system: E. faecalis ATCC29212-VSE; assay: MIC and MBC microtiter plate assay; format: cell-based
K. pneumoniae ATCC700603 = assay: MIC microtiter plate assay; format: cell-based, Klebsiella pneumoniae
[6] = S.aureus ATCC12598-MSSA, value in brackets
[7] = E. faecalis ATCC51299-VRE, value in brackets

For `COc1cc(/C=C/c2ccc(O)c(O)c2)cc(OC)c1` [[33]-1], the MIC (S. aureus ATCC29213) is given as 128 µg/mL (≈ 470 µM).

In the case of `CCCCN(CCCC)c1ccc(-c2ccc(C=C3CCCc4c[n+](CC)ccc43)s2)s1.[I-]` [PB8], the MIC (S.aureus ATCC12598-MSSA; S. aureus ATCC12598, inoculum 1.00101 (1 × 10^1 CFU/mL)) is reported as 0.5 mg/L and 0.86 μM, the MIC (S.aureus ATCC12598-MSSA; S. aureus ATCC12598, inoculum 1.00102 (1 × 10^2 CFU/mL)) is reported as 2 mg/L and 3.46 μM and the MIC (S.aureus ATCC12598-MSSA; S. aureus ATCC12598, inoculum 1.00103 (1 × 10^3 CFU/mL)) is reported as 3.46 μM and 2 mg/L. For the same compound, the MIC (S.aureus ATCC12598-MSSA; S. aureus ATCC12598, inoculum 1.00104 (1 × 10^4 CFU/mL)) was 2 mg/L and 3.46 μM, the MIC (S.aureus ATCC12598-MSSA; S. aureus ATCC12598, inoculum 1.00105 (1 × 10^5 CFU/mL, standard)) was 2 mg/L and 3.46 μM and the MIC (S.aureus ATCC12598-MSSA; S. aureus ATCC12598, inoculum 1.00106 (1 × 10^6 CFU/mL)) was 2 mg/L and 3.46 μM. For the same compound, the MIC (S.aureus ATCC12598-MSSA; S. aureus ATCC12598, inoculum 1.00107 (1 × 10^7 CFU/mL)) was 4 mg/L and 6.91 μM, the MBC (S.aureus ATCC12598-MSSA; S.aureus ATCC12598-MSSA) was 4 µg/mL and the MIC (S.aureus ATCC12598-MSSA; S.aureus ATCC12598-MSSA) was 2 mg/L. The MBC (S.aureus ATCC12598-MSSA; [6]) was 6.91 µM, the MIC (S.aureus ATCC12598-MSSA; [6]) was 3.46 µM and the MBC ([1]; E. faecalis ATCC51299-VRE) was 4 µg/mL. For the same compound, the MIC ([1]; E. faecalis ATCC51299-VRE) was 4 mg/L, the MBC [1, 7] was 6.91 µM and the MIC [1, 7] was 6.91 µM. For the same compound, the MIC ([1]; E. faecalis ATCC51299, inoculum 1.00101 (1 × 10^1 CFU/mL)) was 0.5 mg/L and 0.86 μM, the MIC ([1]; E. faecalis ATCC51299, inoculum 1.00102 (1 × 10^2 CFU/mL)) was 4 mg/L and 6.91 μM and the MIC ([1]; E. faecalis ATCC51299, inoculum 1.00103 (1 × 10^3 CFU/mL)) was 4 mg/L and 6.91 μM. For the same compound, the MIC ([1]; E. faecalis ATCC51299, inoculum 1.00104 (1 × 10^4 CFU/mL)) was 4 mg/L and 6.91 μM, the MIC ([1]; E. faecalis ATCC51299, inoculum 1.00105 (1 × 10^5 CFU/mL, standard)) was 4 mg/L and 6.91 μM and the MIC ([1]; E. faecalis ATCC51299, inoculum 1.00106 (1 × 10^6 CFU/mL)) was 8 mg/L and 13.83 μM. For the same compound, the MIC ([1]; E. faecalis ATCC51299, inoculum 1.00107 (1 × 10^7 CFU/mL)) was 32 mg/L and 55.30 μM, the MIC (A. baumannii ATCC17978) was 128 µg/mL and the MIC (A. baumannii ATCC17978; value in brackets) was 221.22 µM. The MBC (S.aureus ATCC29213-MSSA) was 8 µg/mL, the MIC (S.aureus ATCC29213-MSSA) was 2 µg/mL and the MBC (S.aureus ATCC29213-MSSA; value in brackets) was 13.83 µM. The MIC (S.aureus ATCC29213-MSSA; value in brackets) was 3.46 µM, the MIC (P. aeruginosa ATCC27853) was greater than 128 µg/mL and the MIC (P. aeruginosa ATCC27853; value in brackets) was greater than 221.22 µM. For the same compound, the “comparison between MIC and MBC values” [2] was “no significant differences”, the MBC (S.aureus Mu50-VISA) was 8 µg/mL and the MIC (S.aureus Mu50-VISA) was 2 µg/mL. The MBC (S.aureus Mu50-VISA; value in brackets) was 13.83 µM, the MIC (S.aureus Mu50-VISA; value in brackets) was 3.46 µM and the IC50 (CaCo-2 cells) was 5.01 µM and 5 µM. The MIC (E. coli ATCC25922) was 128 µg/mL, the MIC (E. coli ATCC25922; value in brackets) was 221.22 µM and the MBC (S.aureus USA300-CAMRSA) was 4 µg/mL. The MIC (S.aureus USA300-CAMRSA) was 2 µg/mL, the MBC (S.aureus USA300-CAMRSA; value in brackets) was 6.91 µM and the MIC (S.aureus USA300-CAMRSA; value in brackets) was 3.46 µM. It also gave an MBC/MIC [3] of no more than 4, an MIC [4] greater than 128 µg/mL and an MIC ([4]; value in brackets) greater than 221.22 µM. For the same compound, the MBC [5] was 4 µg/mL, the MIC [5] was 4 µg/mL and the MBC ([5]; value in brackets) was 6.91 µM. For the same compound, the MIC ([5]; value in brackets) was 6.91 µM, the MIC (K. pneumoniae ATCC700603) was greater than 128 µg/mL and the MIC (K. pneumoniae ATCC700603; value in brackets) was greater than 221.22 µM.

Source: publication PMC8466554, “Heteroaryl-Ethylenes as New Lead Compounds in the Fight against High Priority Bacterial Strains” (Antibiotics, 2021)
